Test system: recovered yeast (slurry yeast recovered from the beer fermentation step)
Test: Methylene Blue staining ratio (mortality) of yeast before drying or after drying and reconstitution with water
Assay type: cell-based
Conditions: for Ratio of the dead cells after drying and reconstitution with water: 5% of trehalose; for Elevating the survival ratio of the yeast after reconstitution with water, similar to glycerol: as substitute for glycerol; for Elevating the survival ratio of the dry yeast after reconstitution with water, similar to trehalose: as substitute for trehalose
Procedure: 50 g of a 20% aqueous solution of trehalose was added to 50 g of the recovered yeast and the resultant mixture was stirred at 20° C. for 3 hours to thereby incorporate the trehalose into the yeast cells. Then the yeast having trehalose thus incorporated was filtered under suction on a filter paper No.2 with the use of a Nutsche filter. The obtained yeast was then passed through a 14-mesh sieve and dried in a thermostat at 30° C. for about 20 hours to give a dry yeast. 0.1 g of this dry yeast was suspended and reconstituted in 1 ml of distilled water at room temperature. Then the mortality of the yeast was measured by the Methylene Blue staining method. Since dead cells could not reduce Methylene Blue, the cells stained with Methylene Blue were regarded as dead cells. Thus, the Methylene Blue staining ratio could be referred to as the mortality. […] Thus, trehalose was incorporated as in Example 1 and then the yeast was dried. […]
To 50 g of the slurry yeast recovered from the beer fermentation step, 50 g of an aqueous trehalose solution (concentration: about 20%) was added. After stirring at 20° C. for 3 hours, the yeast was centrifuged, suspended in 50 g portions of 300 g/L aqueous solutions of various sugar alcohols and maintained at room temperature for 15 minutes. Subsequently, the yeast was filtered under suction on a filter paper No.2 as in Example 2. The obtained yeast was passed through a 14-mesh sieve and dried in a thermostat at 5° C. for about 20 hours. The dry yeast thus obtained was reconstituted with water as in Example 2 and stained with Methylene Blue to measure the mortality of the yeast.
To 50 g of the slurry yeast recovered from the beer fermentation step, 50 g of an aqueous trehalose solution (concentration: about 20%) was added. After stirring at 20° C. for 3 hours, the yeast was centrifuged, suspended in 50 g of an about 300 g/L aqueous glycerol solution and maintained at room temperature for 15 minutes. Subsequently, the yeast was filtered under suction on a filter paper No.2 as in Example 2. The obtained yeast was passed through a 14-mesh sieve and dried in a thermostat at 5° C. to 30° C. for about 20 hours. Alternatively, the yeast was dried by using a fluidized bed dryer at 30° C. for 1 hour. Each of the dry yeast thus obtained was rehydrated with water as in Example 2 and stained with Methylene Blue to measure the mortality of the yeast.

[1] = sugar/sugar alcohol (about 20% solution, 20° C., 3 hours) as substitute for trehalose, then 300 g/L glycerol, dried at 5° C.
[2] = trehalose-treatment as in Example 2, after rehydration with water
[3] = trehalose-treatment, then 300 g/L sugar alcohol as substitute for glycerol, 15 minutes, dried at 5° C.
[4] = glycerol 100 g/L after trehalose-treatment
[5] = glycerol 150 g/L after trehalose-treatment
[6] = glycerol 200 g/L after trehalose-treatment
[7] = glycerol 300 g/L after trehalose-treatment

Structure (SMILES): O=C[C@H](O)[C@@H](O)[C@@H](O)[C@H](O)CO [Galactose]
- Methylene Blue-staining ratio (%) after reconstitution with water [1]: 40.6%

Structure (SMILES): OC[C@H]1O[C@H](O[C@H]2O[C@H](CO)[C@@H](O)[C@H](O)[C@H]2O)[C@H](O)[C@@H](O)[C@@H]1O [Trehalose, trehalose]
- Ratio of the dead cells after drying and reconstitution with water (10° C., 1 or 3 hours): about 60%
- Ratio of the dead cells after drying and reconstitution with water (10° C., 21 hours): about 90%
- Methylene Blue-staining ratio (before drying, treated with 5% trehalose, 10° C., 1 Hrs): 8.97
- Methylene Blue-staining ratio (before drying, treated with 5% trehalose, 10° C., 3 Hrs): 8.45
- Methylene Blue-staining ratio (before drying, treated with 5% trehalose, 10° C., 21 Hrs): 11.88
- Methylene Blue-staining ratio (before drying, treated with 5% trehalose, 20° C., 1 Hrs): 6.58
- Methylene Blue-staining ratio (before drying, treated with 5% trehalose, 20° C., 3 Hrs): 7.51
- Methylene Blue-staining ratio (before drying, treated with 5% trehalose, 20° C., 21 Hrs): 16.44
- Methylene Blue-staining ratio (before drying, treated with 10% trehalose, 10° C., 1 Hrs): 6.36
- Methylene Blue-staining ratio (before drying, treated with 10% trehalose, 10° C., 3 Hrs): 8.67
- Methylene Blue-staining ratio (before drying, treated with 10% trehalose, 10° C., 21 Hrs): 17.68
- Methylene Blue-staining ratio (before drying, treated with 10% trehalose, 20° C., 1 Hrs): 8.26
- Methylene Blue-staining ratio (before drying, treated with 10% trehalose, 20° C., 3 Hrs): 9.24
- Methylene Blue-staining ratio (before drying, treated with 10% trehalose, 20° C., 21 Hrs): 8.90
- Methylene Blue-staining ratio (immediately after reconstitution with water (dried at 30° C.), 5% trehalose, 10° C., 1 Hrs): 63.72
- Methylene Blue-staining ratio (immediately after reconstitution with water (dried at 30° C.), 5% trehalose, 10° C., 3 Hrs): 63.40
- Methylene Blue-staining ratio (immediately after reconstitution with water (dried at 30° C.), 5% trehalose, 10° C., 21 Hrs): 90.11
- Methylene Blue-staining ratio (immediately after reconstitution with water (dried at 30° C.), 5% trehalose, 20° C., 1 Hrs): 64.95
- Methylene Blue-staining ratio (immediately after reconstitution with water (dried at 30° C.), 5% trehalose, 20° C., 3 Hrs): 84.17
- Methylene Blue-staining ratio (immediately after reconstitution with water (dried at 30° C.), 5% trehalose, 20° C., 21 Hrs): 92.47
- Methylene Blue-staining ratio (immediately after reconstitution with water (dried at 30° C.), 10% trehalose, 10° C., 1 Hrs): 69.51
- Methylene Blue-staining ratio (immediately after reconstitution with water (dried at 30° C.), 10% trehalose, 10° C., 3 Hrs): 64.95
- Methylene Blue-staining ratio (immediately after reconstitution with water (dried at 30° C.), 10% trehalose, 10° C., 21 Hrs): 79.33
- Methylene Blue-staining ratio (immediately after reconstitution with water (dried at 30° C.), 10% trehalose, 20° C., 1 Hrs): 62.15
- Methylene Blue-staining ratio (immediately after reconstitution with water (dried at 30° C.), 10% trehalose, 20° C., 3 Hrs): 62.04
- Methylene Blue-staining ratio (immediately after reconstitution with water (dried at 30° C.), 10% trehalose, 20° C., 21 Hrs): 87.43
- Methylene Blue-staining ratio (%) after reconstitution with water [1]: 32.2%
- Mortality (%) after drying at 30° C. [2]: 73.4%
- Mortality (%) after drying at 50° C. [2]: 58.0%

Structure (SMILES): OC[C@H]1O[C@H](O[C@H]2[C@H](O)[C@@H](O)[C@H](O)O[C@@H]2CO)[C@H](O)[C@@H](O)[C@@H]1O [Maltose]
- Methylene Blue-staining ratio (%) after reconstitution with water [1]: 56.4%

Structure (SMILES): O=C[C@H](O)[C@@H](O)[C@H](O[C@@H]1O[C@H](CO)[C@@H](O)[C@H](O)[C@H]1O)[C@H](O)CO [Cellobiose]
- Methylene Blue-staining ratio (%) after reconstitution with water [1]: 54.8%

Structure (SMILES): OC[C@@H](O)[C@H](O)[C@@H](O)CO [Xylitol]
- Elevating the survival ratio of the yeast after reconstitution with water, similar to glycerol: effective
- Methylene Blue-staining ratio (%) after reconstitution with water [1]: 41.6%
- Methylene Blue-staining ratio (%) after reconstitution with water [3]: 30.4%

Structure (SMILES): OCC(O)CO [Glycerol, glycerol]
- Methylene Blue-staining ratio, after reconstitution with water after drying and storing at 25° C. for 8 days [4]: 59.8%
- Methylene Blue-staining ratio, before drying [4]: 20.8%
- Methylene Blue-staining ratio, immediately after drying/reconstitution with water (glycerol 100 g/L after trehalose-treatment, dried at 5° C.): 30.8%
- Methylene Blue-staining ratio, after reconstitution with water after drying and storing at 25° C. for 8 days [5]: 62.3%
- Methylene Blue-staining ratio, before drying [5]: 66.7%
- Methylene Blue-staining ratio, immediately after drying/reconstitution with water (glycerol 150 g/L after trehalose-treatment, dried at 5° C.): 23.7%
- Methylene Blue-staining ratio, after reconstitution with water after drying and storing at 25° C. for 8 days [6]: 40.2%
- Methylene Blue-staining ratio, before drying [6]: 97.8%
- Methylene Blue-staining ratio, immediately after drying/reconstitution with water (glycerol 200 g/L after trehalose-treatment, dried at 5° C.): 26.3%
- Methylene Blue-staining ratio, after reconstitution with water after drying and storing at 25° C. for 8 days [7]: 48.5%
- Methylene Blue-staining ratio, before drying [7]: 99.6%
- Methylene Blue-staining ratio, immediately after drying/reconstitution with water (glycerol 300 g/L after trehalose-treatment, dried at 5° C.): 26.2%
- Methylene Blue-staining ratio, before drying (trehalose-treatment then 300 g/L aqueous glycerol, 15 minutes): 95.8%
- Methylene Blue-staining ratio, after drying/reconstitution with water (trehalose-treatment then 300 g/L aqueous glycerol, 15 minutes, dried at 5° C.): 18.3%
- Methylene Blue-staining ratio (%) after reconstitution with water [3]: 24.4%

Structure (SMILES): OC[C@@H](O)[C@@H](O[C@H]1O[C@H](CO)[C@@H](O)[C@H](O)[C@H]1O)[C@H](O)[C@@H](O)CO [Maltitol]
- Elevating the survival ratio of the yeast after reconstitution with water, similar to glycerol: effective
- Elevating the survival ratio of the dry yeast after reconstitution with water, similar to trehalose: effective
- Methylene Blue-staining ratio (%) after reconstitution with water [1]: 29.7%
- Methylene Blue-staining ratio (%) after reconstitution with water [3]: 30.1%

Structure (SMILES): OC1OC[C@@H](O[C@@H]2OC[C@@H](O)[C@H](O)[C@H]2O)[C@H](O)[C@H]1O (some centres unmarked) [Xylobiose]
- Methylene Blue-staining ratio (%) after reconstitution with water [1]: 46.5%

Structure (SMILES): OC[C@@H](O)[C@@H](O)[C@H](O)[C@H](O)CO [Mannitol]
- Elevating the survival ratio of the dry yeast after reconstitution with water, similar to trehalose: effective
- Methylene Blue-staining ratio (%) after reconstitution with water [1]: 37.1%
- Methylene Blue-staining ratio (%) after reconstitution with water [3]: 47.5%

Structure (SMILES): OC[C@@H](O)[C@@H](O)[C@H](O)[C@@H](O)CO [Sorbitol]
- Methylene Blue-staining ratio (%) after reconstitution with water [1]: 41.8%
- Methylene Blue-staining ratio (%) after reconstitution with water [3]: 41.2%

Structure (SMILES): O=C[C@H](O)[C@@H](O)[C@H](O)CO [Xylose]
- Elevating the survival ratio of the dry yeast after reconstitution with water, similar to trehalose: effective
- Methylene Blue-staining ratio (%) after reconstitution with water [1]: 37.7%

Structure (SMILES): OC[C@H]1O[C@@H](O[C@H]2[C@H](O)[C@@H](O)C(O)O[C@@H]2CO)[C@H](O)[C@@H](O)[C@H]1O (some centres unmarked) [Lactose]
- Methylene Blue-staining ratio (%) after reconstitution with water [1]: 38.6%

Structure (SMILES): O=C(CO)[C@@H](O)[C@H](O)[C@H](O)CO [Fructose]
- Methylene Blue-staining ratio (%) after reconstitution with water [1]: 51.1%

Structure (SMILES): OC[C@H]1O[C@@](CO)(O[C@H]2O[C@H](CO)[C@@H](O)[C@H](O)[C@H]2O)[C@@H](O)[C@@H]1O [Sucrose]
- Methylene Blue-staining ratio (%) after reconstitution with water [1]: 51.9%
